Assay results taken from patent US9790216B2, “3-substituted cyclopentylamine derivatives” (Merck Patent GmbH, priority 2013, dated 2017).

Biological target: T1, human fatty acid synthase FASN (Homo sapiens, UniProt P49327)
T1 construct: human recombinant full-length fatty acid synthase; made in house; host or cells: SF9 cells
Experiment: Biochemical activity testing of human fatty acid synthase FASN (NADPH fluorescence intensity enzyme assay)
Conditions: human recombinant full-length FASN, inhibition
Source text: • GST=Glutathione-S-transferase • FRET=Fluorescence resonance energy transfer • HTRF®=(homogenous time resolved fluorescence) • HEPES=4-(2-hydroxyethyl)-1-piperazine ethanesulfonic acid buffer • DTT=Dithiothreitol • BSA=bovine serum albumin • CHAPS=detergent; • CHAPS=3-[(3-cholamidopropyl)dimethylammonio]-1-propanesulfonate Biochemical Activity Testing of Human Fatty Acid Synthase FASN
Fatty acid synthase FASN is a multifunctional enzyme with seven catalytic activities thereby synthesising long chain fatty acids especially palmitoyl-CoA in the presence of co-factor NADPH starting from the substrates acetyl-CoA and malonyl-CoA. The reductive synthesis is realized by the oxidation of NADPH to NADP. Since NADPH has a high fluorescence intensity quantum yield compared to NADP with excitation at 340 nm and emission at 460 nm, the reaction can be monitored via the decrease in fluorescence intensity. The biochemical FASN activity testing was performed as 384 well two-time-point kinetic fluorescence intensity assay format in Greiner low volume medium binding 384-well black microtiter plates in a total assay volume of 8 μl and was used for high throughput screen. In each well 3 μl 40 nM human recombinant full-length fatty acid synthase (produced in-house in SF9 cells) were dispensed in the following assay buffer: 50 mM potassium phosphate buffer pH 7.0, 0.005% (w/v) BSA, 2 mM Glutathione, 0.02% Tween-20. Then 2 μl of 200 μM NADPH in assay buffer were added, followed by the addition of the test compounds in 10 dilution concentrations starting with 30 μM (final concentration) to get a final DMSO content of 1% (v/v). The mixture was incubated for at least 15 min at room temperature. After the pre-incubation the enzymatic reaction was started by the addition of 2 μl substrate solution (80 μM acetyl-CoA, 240 μM malonyl-CoA). A first fluorescence intensity measurement (time point one) was performed with an Envision multimode reader (Perkin Elmer LAS Germany GmbH) at excitation wavelength 340 nm (lamp mode) and emission wavelength 460 nm. The reaction was incubated for 30 minutes at room temperature. After this the fluorescence intensity was measured again in the Envision using the same parameters as described above (second time point measurement). The data were analysed by subtracting the first time point measurement value from the second time point measurement value (after the enzymatic reaction). The differences of the emission signals were determined. These reflect directly the conversion rate of NADPH. The full value used was the inhibitor-free reaction. A pharmacological zero value was used like GSK837149A (Sigma-Aldrich) in a final concentration of 5-10 μM. The inhibitory values (IC50) were determined using either the program Symyx Assay Explorer® or Condosseo® from GeneData.

T1 sequence (P49327 whole entry): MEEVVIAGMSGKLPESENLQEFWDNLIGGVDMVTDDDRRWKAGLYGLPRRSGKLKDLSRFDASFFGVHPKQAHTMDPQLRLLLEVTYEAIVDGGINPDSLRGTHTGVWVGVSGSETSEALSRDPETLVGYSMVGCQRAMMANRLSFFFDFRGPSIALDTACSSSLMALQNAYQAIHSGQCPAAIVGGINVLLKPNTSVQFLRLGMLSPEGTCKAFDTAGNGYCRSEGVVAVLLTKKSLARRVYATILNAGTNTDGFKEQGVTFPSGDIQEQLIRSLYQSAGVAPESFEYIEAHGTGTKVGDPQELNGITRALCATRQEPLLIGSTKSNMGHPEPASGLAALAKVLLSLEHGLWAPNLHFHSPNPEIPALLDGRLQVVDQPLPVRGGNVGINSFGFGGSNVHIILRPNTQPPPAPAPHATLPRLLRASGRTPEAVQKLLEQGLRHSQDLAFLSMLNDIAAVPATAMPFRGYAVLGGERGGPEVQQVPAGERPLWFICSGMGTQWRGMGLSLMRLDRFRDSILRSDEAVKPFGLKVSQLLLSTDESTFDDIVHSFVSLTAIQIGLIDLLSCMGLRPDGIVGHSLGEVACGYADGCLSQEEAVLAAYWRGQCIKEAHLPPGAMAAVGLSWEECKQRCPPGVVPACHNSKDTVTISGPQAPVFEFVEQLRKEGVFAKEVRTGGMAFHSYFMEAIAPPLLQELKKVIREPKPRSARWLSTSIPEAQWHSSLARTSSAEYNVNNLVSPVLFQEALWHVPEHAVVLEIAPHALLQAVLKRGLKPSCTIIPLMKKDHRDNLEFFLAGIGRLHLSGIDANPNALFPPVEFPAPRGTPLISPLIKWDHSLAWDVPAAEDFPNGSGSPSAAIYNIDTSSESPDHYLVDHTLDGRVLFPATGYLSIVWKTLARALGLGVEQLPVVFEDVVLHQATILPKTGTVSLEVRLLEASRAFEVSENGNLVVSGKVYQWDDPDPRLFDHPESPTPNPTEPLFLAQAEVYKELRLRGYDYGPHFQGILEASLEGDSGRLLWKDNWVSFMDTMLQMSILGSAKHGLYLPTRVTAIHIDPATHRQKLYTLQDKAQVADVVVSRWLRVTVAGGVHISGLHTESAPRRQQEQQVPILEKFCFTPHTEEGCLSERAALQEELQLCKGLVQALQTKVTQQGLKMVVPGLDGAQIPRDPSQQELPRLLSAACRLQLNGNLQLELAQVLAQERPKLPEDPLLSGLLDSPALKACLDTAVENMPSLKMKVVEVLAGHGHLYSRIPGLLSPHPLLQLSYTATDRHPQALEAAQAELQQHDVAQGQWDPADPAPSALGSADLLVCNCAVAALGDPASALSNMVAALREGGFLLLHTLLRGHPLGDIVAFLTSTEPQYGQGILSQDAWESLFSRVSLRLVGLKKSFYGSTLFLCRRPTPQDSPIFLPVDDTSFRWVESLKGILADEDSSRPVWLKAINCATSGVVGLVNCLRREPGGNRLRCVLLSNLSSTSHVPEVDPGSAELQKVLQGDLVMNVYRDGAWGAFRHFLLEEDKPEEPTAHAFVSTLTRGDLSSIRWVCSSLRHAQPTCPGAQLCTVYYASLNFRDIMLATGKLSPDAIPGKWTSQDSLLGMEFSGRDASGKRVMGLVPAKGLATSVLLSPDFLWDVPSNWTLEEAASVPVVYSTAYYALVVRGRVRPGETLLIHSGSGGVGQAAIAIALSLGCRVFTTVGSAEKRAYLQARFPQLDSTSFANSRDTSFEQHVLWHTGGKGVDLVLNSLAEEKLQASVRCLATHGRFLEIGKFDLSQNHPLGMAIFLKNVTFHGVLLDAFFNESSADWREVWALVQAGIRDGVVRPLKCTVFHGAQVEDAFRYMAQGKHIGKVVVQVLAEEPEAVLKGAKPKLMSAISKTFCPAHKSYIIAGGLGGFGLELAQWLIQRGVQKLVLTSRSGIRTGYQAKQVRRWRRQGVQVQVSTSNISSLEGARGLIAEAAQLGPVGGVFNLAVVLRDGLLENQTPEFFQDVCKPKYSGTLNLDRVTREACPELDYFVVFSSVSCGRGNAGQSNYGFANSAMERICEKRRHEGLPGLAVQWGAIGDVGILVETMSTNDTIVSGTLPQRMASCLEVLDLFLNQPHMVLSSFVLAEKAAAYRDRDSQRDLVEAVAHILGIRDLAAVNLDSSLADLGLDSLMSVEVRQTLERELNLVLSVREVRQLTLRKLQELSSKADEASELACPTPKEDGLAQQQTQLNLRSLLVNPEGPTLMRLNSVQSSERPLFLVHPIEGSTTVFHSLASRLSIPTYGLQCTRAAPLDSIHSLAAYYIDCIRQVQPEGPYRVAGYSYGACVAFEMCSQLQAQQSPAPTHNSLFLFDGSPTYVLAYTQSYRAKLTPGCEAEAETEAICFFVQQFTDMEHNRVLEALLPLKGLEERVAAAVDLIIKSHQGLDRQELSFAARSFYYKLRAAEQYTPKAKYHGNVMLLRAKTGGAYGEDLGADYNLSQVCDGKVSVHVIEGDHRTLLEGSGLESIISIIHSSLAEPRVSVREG

Compound | IC50 [nM]
CCCc1nnc([C@H]2CC[C@@H](N(C)C(=O)c3ccc(-c4nc5ccccc5o4)cc3)C2)o1 [Compound A1, 4-benzoxazol-2-yl-N-methyl-N-[(1 R,3S)-3-(5-propyl-[1,3,4]oxadiazol-2-yl)-cyclopentyl]-benzamide] | < 300
CCCc1nnc([C@H]2CC[C@@H](N(C)C(=O)c3ccc(-c4ccccc4)cc3)C2)o1 [Compound A2, biphenyl-4-carboxylic acid methyl-[(1R,3S)-3-(5-propyl-[1,3,4]oxadiazol-2-yl)-cyclopentyl]-amide] | < 300
CCCc1nnc([C@H]2CC[C@@H](N(C)C(=O)c3ccc(C#Cc4ccc(F)cc4)cc3)C2)o1 [Compound A3, 4-(4-fluoro-phenylethynyl)-N-methyl-N-[(1 R,3S)-3-(5-propyl-[1,3,4]oxadiazol-2-yl)-cyclopentyl]-benzamide] | < 300
CCCc1nnc([C@H]2CC[C@@H](N(C)C(=O)c3ccc(-c4ccc(C#N)cc4)cc3)C2)o1 [Compound A4, 4′-cyano-biphenyl-4-carboxylic acid methyl-[(1 R,3S)-3-(5-propyl-[1,3,4]oxadiazol-2-yl)-cyclopentyl]-amide] | < 300
CCc1nnc([C@H]2CC[C@@H](N(C)C(=O)c3ccc(-c4nc5ccccc5o4)cc3)C2)o1 [Compound A5, 4-benzoxazol-2-yl-N-[(1 R,3S)-3-(5-ethyl-[1,3,4]oxadiazol-2-yl)-cyclopentyl]-N-methyl-benzamide] | < 300
CCc1nnc([C@H]2CC[C@@H](N(C)C(=O)c3ccc(-c4ccc(C#N)cc4)cc3)C2)o1 [Compound A6, 4′-cyano-biphenyl-4-carboxylic acid [(1R,3S)-3-(5-ethyl-[1,3,4]oxadiazol-2-yl)-cyclopentyl]-methyl-amide] | < 300
CCc1nnc([C@H]2CC[C@@H](N(C)C(=O)c3ccc(-c4nc5ccccc5[nH]4)cc3)C2)o1 [Compound A7, 4-(1H-benzimidazol-2-yl)-N-[(1 R,3S)-3-(5-ethyl-[1,3,4]oxadiazol-2-yl)-cyclopentyl]-N-methyl-benzamide] | < 300
CCc1nnc([C@H]2CC[C@@H](N(C)C(=O)c3ccc(-c4ccncc4)cc3)C2)o1 [Compound A8, N-[(1R,3S)-3-(5-ethyl-[1,3,4]oxadiazol-2-yl)-cyclopentyl]-N-methyl-4-pyridin-4-yl-benzamide] | 300 to 3000
CC(C)c1nnc([C@H]2CC[C@@H](N(C)C(=O)c3ccc(-c4nc5ccccc5o4)cc3)C2)o1 [Compound A9, 4-benzoxazol-2-yl-N-[(1 R,3S)-3-(5-isopropyl-[1,3,4]oxadiazol-2-yl)-cyclopentyl]-N-methyl-benzamide] | < 300
CC(C)c1nnc([C@H]2CC[C@@H](N(C)C(=O)c3ccc(-c4ccc(C#N)cc4)cc3)C2)o1 [Compound A10, 4′-cyano-biphenyl-4-carboxylic acid [(1R,3S)-3-(5-isopropyl-[1,3,4]oxadiazol-2-yl)-cyclopentyl]-methyl-amide] | < 300
CC(C)c1nnc([C@H]2CC[C@@H](N(C)C(=O)c3ccc(-c4nc5ccccc5[nH]4)cc3)C2)o1 [Compound A11, 4-(1H-benzimidazol-2-yl)-N-[(1 R,3S)-3-(5-isopropyl-[1,3,4]oxadiazol-2-yl)-cyclopentyl]-N-methyl-benzamide] | < 300
CC(C)c1nnc([C@H]2CC[C@@H](N(C)C(=O)c3ccc(-c4ccncc4)cc3)C2)o1 [Compound A12, N-[(1R,3S)-3-(5-isopropyl-[1,3,4]oxadiazol-2-yl)-cyclopentyl]-N-methyl-4-pyridin-4-yl-benzamide] | 300 to 3000
Cc1nnc([C@H]2CC[C@@H](N(C)C(=O)c3ccc(-c4nc5ccccc5o4)cc3)C2)o1 [Compound A13, 4-benzoxazol-2-yl-N-methyl-N-[(1 R,3S)-3-(5-methyl-[1,3,4]oxadiazol-2-yl)-cyclopentyl]-benzamide] | < 300
Cc1nnc([C@H]2CC[C@@H](N(C)C(=O)c3ccc(-c4nc5ccccc5s4)cc3)C2)o1 [Compound A14, 4-benzothiazol-2-yl-N-methyl-N-[(1 R,3S)-3-(5-methyl-[1,3,4]oxadiazol-2-yl)-cyclopentyl]-benzamide] | < 300
Cc1nnc([C@H]2CC[C@@H](N(C)C(=O)c3ccc(-c4ccncc4)cc3)C2)o1 [Compound A15, N-methyl-N-[(1R,3S)-3-(5-methyl-[1,3,4]oxadiazol-2-yl)-cyclopentyl]-4-pyridin-4-yl-benzamide] | 300 to 3000
Cc1nnc([C@H]2CC[C@@H](N(C)C(=O)c3ccc(-c4ccc(Cl)cc4)cc3)C2)o1 [Compound A16, 4′-chloro-biphenyl-4-carboxylic acid methyl-[(1R,3S)-3-(5-methyl-[1,3,4]oxadiazol-2-yl)-cyclopentyl]-amide] | < 300
Cc1nnc([C@H]2CC[C@@H](N(C)C(=O)c3ccc(-c4nc5ccccc5[nH]4)cc3)C2)o1 [Compound A17, 4-(1H-benzimidazol-2-yl)-N-methyl-N-[(1 R,3S)-3-(5-methyl-[1,3,4]oxadiazol-2-yl)-cyclopentyl]-benzamide] | < 300
COc1cc(C(=O)N(C)[C@@H]2CC[C@H](c3nnc(C)o3)C2)ccc1-c1nc2ccccc2o1 [Compound A18, 4-benzoxazol-2-yl-3-methoxy-N-methyl-N-[(1 R,3S)-3-(5-methyl-[1,3,4]oxadiazol-2-yl)-cyclopentyl]-benzamide] | < 300

Next, values leading:

IC50 [nM] | Compound
3000 to 50000 | CN(C(=O)c1ccc(-c2ccccc2)cc1)[C@@H]1CC[C@H](n2cc(C3CC3)nn2)C1 (racemic) [Compound A29, (rac)-cis-biphenyl-4-carboxylic acid [-3-(4-cyclopropyl-[1,2,3]triazol-1-yl)-cyclopentyl]-methyl-amide]
3000 to 50000 | CCCc1cn([C@H]2CC[C@@H](N(C)C(=O)c3ccc(-c4ccccc4)cc3)C2)nn1 (racemic) [Compound A30, (rac)-cis-biphenyl-4-carboxylic acid methyl-[3-(4-propyl-[1,2,3]triazol-1-yl)-cyclopentyl]-amide]
< 300 | Cc1nnc([C@H]2CC[C@@H](N(C)C(=O)c3ccc(-c4nc5cc(Cl)ccc5o4)cc3)C2)o1 [Compound A19, 4-(5-chloro-benzoxazol-2-yl)-N-methyl-N-[(1 R,3S)-3-(5-methyl-[1,3,4]oxadiazol-2-yl)-cyclopentyl]-benzamide]
< 300 | Cc1nnc([C@H]2CC[C@@H](N(C)C(=O)c3ccc(C#Cc4ccc(Cl)cc4)cc3)C2)o1 [Compound A21, 4-(4-chloro-phenylethynyl)-N-methyl-N-[(1 R,3S)-3-(5-methyl-[1,3,4]oxadiazol-2-yl)-cyclopentyl]-benzamide]
300 to 3000 | Cc1nnc([C@H]2CC[C@@H](N(C)C(=O)c3ccc(C#Cc4ccncc4)cc3)C2)o1 [Compound A22, N-methyl-N-[(1R,3S)-3-(5-methyl-[1,3,4]oxadiazol-2-yl)-cyclopentyl]-4-pyridin-4-ylethynyl-benzamide]
300 to 3000 | Cc1nnc([C@H]2CC[C@@H](N(C)C(=O)c3ccc(-c4nc5ccccc5o4)cn3)C2)o1 [Compound A23, 5-benzoxazol-2-yl-pyridine-2-carboxylic acid methyl-[(1R,3S)-3-(5-methyl-[1,3,4]oxadiazol-2-yl)-cyclopentyl]-amide]
< 300 | Cc1nnc([C@H]2CC[C@@H](N(C)C(=O)c3ccc(-c4ccccc4)cc3)C2)o1 [Compound A24, biphenyl-4-carboxylic acid methyl-[(1R,3S)-3-(5-methyl-[1,3,4]oxadiazol-2-yl)-cyclopentyl]-amide]
< 300 | Cc1nnc([C@H]2CC[C@@H](N(C)C(=O)c3ccc(-c4ccc(C#N)cc4)cc3)C2)o1 [Compound A25, 4′-cyano-biphenyl-4-carboxylic acid methyl-[(1R,3S)-3-(5-methyl-[1,3,4]oxadiazol-2-yl)-cyclopentyl]-amide]
< 300 | Cc1cnc([C@H]2CC[C@@H](N(C)C(=O)c3ccc(-c4nc5ccccc5o4)cc3)C2)o1 [Compound A26, 4-benzoxazol-2-yl-N-methyl-N-[(1 R,3S)-3-(5-methyl-oxazol-2-yl)-cyclopentyl]-benzamide]
300 to 3000 | Cc1coc([C@H]2CC[C@@H](N(C)C(=O)c3ccc(-c4nc5ccccc5o4)cc3)C2)n1 [Compound A27, 4-benzoxazol-2-yl-N-methyl-N-[(1 R,3S)-3-(4-methyl-oxazol-2-yl)-cyclopentyl]-benzamide]
